Patent publication US20130029858A1, “Method of Drug Screening through Quantitative Detection by Atomic Force Microscopy and Effective Protein Chips Development through Method Thereof” (NATIONAL APPLIED RESEARCH LABORATORIES, priority 2011, published 2013)

Molecular target: CD28/CD80 binding (Homo sapiens, UniProt P10747)
Test: AFM measurement of binding force between imm-CD28 on chips and afm-CD80 on probe, blocking by drug
From the text: (a) Immobilizing receptor and ligand [11]: At least one receptor is immobilized on a surface of each one of a plurality of chips and at least one ligand to the receptor is immobilized on a surface of a probe of an AFM. Therein, the chip can be extended to a micro-array chip immobilized with different kinds of receptors.
(b) Binding drug to receptor [12]: A drug is flowed through the chip to bind the drug to the receptor.
(c) Measuring binding force: The AFM is used to processing point-to-point detection for acquiring blocking effect by the drug according to the binding forces between the receptor and the ligand. If the binding force between the drug and the receptor is bigger than the binding force between the receptor and the ligand, the drug is identified as capable of breaking the bond between the receptor and the ligand, vice versa.
Take immuno-suppressive agent as an example. In FIG. 2, a receptor of T-cell membrane, CD28, is immobilized on chips, which is a protein labeled as imm-CD28 [21]. A ligand to CD28, ligand-CD80, is immobilized on a probe of an AFM, which is a receptor on immune B-cell membrane and is labeled as afm-CD80 [31]. Since the binding between CD80 and CD28 is related to human anaphylactic reaction, a small-molecule drug can be applied to block the binding between CD28 and CD80 for reducing immuno-reaction and anaphylactic reaction if the binding force between the drug and CD28 is bigger than that between CD80 and CD28.
Take an immuno-suppressive drug candidate, cynarin, as an example. The imm-CD28 [21] is immobilized on the chips and the afm-CD80 [31] is immobilized on the probe. Then the drug candidate, cynarin, is flowed through the chips to be bond with imm-CD28 [21] and separated from other components. In FIG. 3, a binding force (q1) between CD28 and CD80 on afm-CD80 [31] is great before adding cynarin. After adding the effective immuno-suppressive drug candidate 3, cynarin, the bond between CD28 and CD80 is blocked to form a very small binding force (q2). That is, q1>>q2. […]

Chain of CD28/CD80 binding (P10747 19-152 limits assumed): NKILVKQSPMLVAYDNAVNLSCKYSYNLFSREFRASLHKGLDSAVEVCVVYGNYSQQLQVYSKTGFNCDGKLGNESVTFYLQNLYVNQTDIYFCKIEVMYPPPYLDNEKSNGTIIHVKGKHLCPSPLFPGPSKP

O=C(/C=C/c1ccc(O)c(O)c1)O[C@@H]1C[C@@](OC(=O)/C=C/c2ccc(O)c(O)c2)(C(=O)O)C[C@@H](O)[C@@H]1O [cynarin]
difference between the binding forces before and after adding cynarin (q1−q2) (167 pN−90 pN): about 77 pN
average binding force between CD28 and CD80 after adding cynarin (q2) (after adding cynarin, average of 100 positions on chip, before adding about 167 pN±14 (q1), FIG. 4B): about 90 pN
difference between the binding forces before and after adding cynarin, percent (relative to q1 167 pN): ~46%
